Columns and labels:
[1] = test system: monosodium urate (MSU) models; assay: Von-frey test in monosodium urate models; format: in vivo, mice; set-up: threshold values (Von-frey test): unit not given here; conditions: monosodium urate model; for analgesic efficacy, Von-frey test (in words): oral 10, 20, 40, 80 mg/kg; for concentration of highest analgesic efficacy, Von-frey test: oral 10, 20, 40, 80 mg/kg tested
Method: 100 mg of uric acid and 60 μl of 10 N NaOH were dissolved in 20 ml of distilled water and the pH of the solution was adjusted to 7.2-7.4 with HCl (1 N) at 60° C. After stirring at room temperature for 5 days, the solution was plated in a 1 ml tube and stored for 4 days. The solution was vortexed overnight until needle-like crystals appeared. The solution was washed twice with 100% ethanol and centrifuged at 3000 rpm for 2 min. Finally, the MSU crystals were collected and dissolved in […] of endotoxin-free PBS. The resulting sample were injected intra-articularly into mice (MSU 300 μg/10 μl each) under anesthesia. At 24 h post-injection, pain or ankle swelling were measured to determine the analgesic efficacy of a test substance.
(§1) After damage to the sciatic nerve, allodynia induced by the mechanical stimulus was measured. Mice were housed in acrylic chambers on a steel mesh floor and acclimated for ≥60 min before testing. Continuous responses were evaluated using Von-frey filaments by the up-down method. The filaments were brought into vertical contact with the affected left soles and the contact was maintained for 5-6 sec. The response was considered to be positive when the mouse rapidly avoided the stimulus, startled or licked its sole. The Von-frey filaments were first used to stimulate the mice.
(§2) The analgesic efficacies of the test substances were evaluated in monosodium urate models. To this end, after oral administration of each test substance at concentrations of 10, 20, 40, and 80 mg/kg, threshold values were measured at different periods of time through Von-frey test.

Raw 264.7 cells = assay: Measurement of NO production in LPS-stimulated Raw 264.7 cells; format: cell-based; conditions: for inhibition at 12.5 µM / inhibition at 25 µM / inhibition at 50 µM / inhibition at 100 µM: Mus musculus, RAW264.7, LPS 100 ng/ml, 24 h; for reduction of NO production (in words): together with LPS (100 ng/ml)
Method: Raw 264.7 cells were plated in a 96-well cell culture plate (50,000 cells/well). Lipopolysaccharide (LPS) was diluted to 100 ng/ml and the dilution was added to the cell culture media The LPS stimulus was applied for 24 h to induce the activity of the Raw 264.7 cells and supernatants (50 μl each) obtained from the 96-well cell culture plate were plated in a new plate. 50 μl of a sulfanilamide solution was added and the reaction was allowed to proceed for 10 min. 50 μl of a NED solution was added and the reaction was allowed to proceed for 10 min. The amount of NO produced from the cells in the cell culture media was determined by measuring the absorbance at a wavelength of 540 nm.

MAPK = assay: Western blot analysis, MAPK signaling by LPS signals; format: cell-based
Method: Cells were harvested, washed with 1×PBS, and suspended by adding a mixture of a protein extraction buffer (150 mM NaCl, 50 mM Tris-HCl pH 7.4, 5 mM EDTA pH 8.0, 1% NP-40) and a protease inhibitor cocktail. Then, the reaction was allowed to proceed in ice for 20 min, sonicated, and centrifuged (13,000 rpm, 30 min). The concentration of proteins in the supernatant was quantified by a BCA protein assay and proteins were separated on the basis of size on an SDS-PAGE gel. Thereafter, proteins were transferred to a PVDF membrane and blocked with skim milk for 1 h. Primary and secondary antibodies were coupled and photosensitized with ECL solution to determine the expression levels of desired proteins.

[2] = test system: anticancer drug-induced peripheral neuropathy models (vincristine); assay: Von-frey test in anticancer drug-induced peripheral neuropathy models; format: in vivo, mice; set-up: threshold values (Von-frey test): unit not given here
Text: Vincristine is an anticancer drug that is widely used to treat malignant tumors, including breast cancer, leukemia, lymphoma, and primary brain tumor. However, vincristine was reported to cause neurotoxicity in peripheral nervous fibers and sensory or motor neuropathy after use. The anticancer drug vincristine is known to cause predictable and consistent neurotoxicity in all patients, particularly patients treated with therapeutic doses. When a patient receives a dose of vincristine, paresthesia accompanied by pain is first observed in proportion to the dose. As neuropathy develops, axons are lost together with motor function. Vincristine is also known to induce hypersensitivity of C nerve fiber nociceptors in the peripheral nervous system. Neuropathy was induced by administration of vincristine. First, 0.05 mg/kg of vincristine was administered intraperitoneally. Thereafter, vincristine was administered intraperitoneally twice a week for 6 weeks (0.125 mg/kg each). Neuropathic pain began to appear at week 3 after administration and significant pain was reported at week 4. The degree of neuropathic pain was measured through the […] (Junzo et al., 2005).
as §1
as §2, with “anticancer drug-induced peripheral neuropathy” for “monosodium urate”

CC(=O)Oc1ccccc1C(=O)NC1=NCC2c3ccccc3Cc3ccccc3N12 (stereo not drawn) [E-A, 2-((9,13b-dihydro-1H-dibenzo[c,f]imidazo[1,5-a]azepin-3-yl)carbamoyl)phenyl acetate]
threshold values (Von-frey test) ([1]; oral 10 mg/kg, basal): 0.186
threshold values (Von-frey test) ([1]; oral 20 mg/kg, basal): 0.208
threshold values (Von-frey test) ([1]; oral 40 mg/kg, basal): 0.190
threshold values (Von-frey test) ([1]; oral 80 mg/kg, basal): 0.186
analgesic efficacy, Von-frey test (in words) [1]: concentration-dependent until 2-3 h after treatment
concentration of highest analgesic efficacy, Von-frey test [1]: 80 mg/kg
inhibition at 12.5 µM (Raw 264.7 cells): 0%
inhibition at 25 µM (Raw 264.7 cells): 17.1%
inhibition at 50 µM (Raw 264.7 cells): 40.1%
inhibition at 100 µM (Raw 264.7 cells): 52.4%
reduction of NO production (in words) (Raw 264.7 cells): concentration-dependent reduction in NO production
effect on MAPK signaling by LPS signals (MAPK): found to affect both MAPK signaling and Akt signaling by LPS signals and reduce the activity of proteins

O=C(NC1=NCC2c3ccccc3Cc3ccccc3N12)c1ccccc1O (stereo not drawn) [E-S, N-(9,13b-dihydro-1H-dibenzo[c,f]imidazo[1,5-a]azepin-3-yl)-2-hydroxybenzamide]
threshold values (Von-frey test) ([1]; oral 10 mg/kg, 1 h, 10 mg/kg): 0.173
threshold values (Von-frey test) ([1]; oral 10 mg/kg, 2 h, 10 mg/kg): 0.211
threshold values (Von-frey test) ([1]; oral 10 mg/kg, 3 h, 10 mg/kg): 0.148
threshold values (Von-frey test) ([1]; oral 10 mg/kg, 4 h, 10 mg/kg): 0.166
threshold values (Von-frey test) ([1]; oral 10 mg/kg, 5 h, 10 mg/kg): 0.107
threshold values (Von-frey test) ([1]; oral 10 mg/kg, basal): 0.127
threshold values (Von-frey test) ([1]; oral 20 mg/kg, 1 h, 20 mg/kg): 0.194
threshold values (Von-frey test) ([1]; oral 20 mg/kg, 2 h, 20 mg/kg): 0.163
threshold values (Von-frey test) ([1]; oral 20 mg/kg, 4 h, 20 mg/kg): 0.207
threshold values (Von-frey test) ([1]; oral 20 mg/kg, 5 h, 20 mg/kg): 0.194
threshold values (Von-frey test) ([1]; oral 20 mg/kg, basal): 0.127
threshold values (Von-frey test) ([1]; oral 40 mg/kg, 1 h, 40 mg/kg): 0.183
threshold values (Von-frey test) ([1]; oral 40 mg/kg, 2 h, 40 mg/kg): 0.214
threshold values (Von-frey test) ([1]; oral 40 mg/kg, 3 h, 40 mg/kg): 0.278
threshold values (Von-frey test) ([1]; oral 40 mg/kg, 4 h, 40 mg/kg): 0.257
threshold values (Von-frey test) ([1]; oral 40 mg/kg, 5 h, 40 mg/kg): 0.152
threshold values (Von-frey test) ([1]; oral 40 mg/kg, basal): 0.127
threshold values (Von-frey test) ([1]; oral 80 mg/kg, 1 h, 80 mg/kg): 0.239
threshold values (Von-frey test) ([1]; oral 80 mg/kg, 2 h, 80 mg/kg): 0.439
threshold values (Von-frey test) ([1]; oral 80 mg/kg, 3 h, 80 mg/kg): 0.301
threshold values (Von-frey test) ([1]; oral 80 mg/kg, 4 h, 80 mg/kg): 0.267
threshold values (Von-frey test) ([1]; oral 80 mg/kg, 5 h, 80 mg/kg): 0.155
threshold values (Von-frey test) ([1]; oral 80 mg/kg, basal): 0.138
analgesic efficacy, Von-frey test (in words) [1]: concentration-dependent until 2 h after treatment
concentration of highest analgesic efficacy, Von-frey test [1]: 80 mg/kg
concentration of highest analgesic efficacy, Von-frey test ([2]; 1 h after treatment, oral 10, 20, 40, 80 mg/kg tested): 80 mg/kg
threshold values (Von-frey test) ([2]; oral 10 mg/kg, 1 h): 0.110
threshold values (Von-frey test) ([2]; oral 10 mg/kg, 2 h): 0.163
threshold values (Von-frey test) ([2]; oral 10 mg/kg, 3 h): 0.180
threshold values (Von-frey test) ([2]; oral 10 mg/kg, 4 h): 0.145
threshold values (Von-frey test) ([2]; oral 10 mg/kg, 5 h): 0.135
threshold values (Von-frey test) ([2]; oral 10 mg/kg, basal): 0.113
threshold values (Von-frey test) ([2]; oral 20 mg/kg, 1 h): 0.173
threshold values (Von-frey test) ([2]; oral 20 mg/kg, 2 h): 0.208
threshold values (Von-frey test) ([2]; oral 20 mg/kg, 3 h): 0.191
threshold values (Von-frey test) ([2]; oral 20 mg/kg, 4 h): 0.137
threshold values (Von-frey test) ([2]; oral 20 mg/kg, 5 h): 0.194
threshold values (Von-frey test) ([2]; oral 20 mg/kg, basal): 0.157
threshold values (Von-frey test) ([2]; oral 40 mg/kg, 1 h): 0.324
threshold values (Von-frey test) ([2]; oral 40 mg/kg, 2 h): 0.306
threshold values (Von-frey test) ([2]; oral 40 mg/kg, 3 h): 0.270
threshold values (Von-frey test) ([2]; oral 40 mg/kg, 4 h): 0.239
threshold values (Von-frey test) ([2]; oral 40 mg/kg, 5 h): 0.194
threshold values (Von-frey test) ([2]; oral 40 mg/kg, basal): 0.173
threshold values (Von-frey test) ([2]; oral 80 mg/kg, 1 h): 0.408
threshold values (Von-frey test) ([2]; oral 80 mg/kg, 2 h): 0.385
threshold values (Von-frey test) ([2]; oral 80 mg/kg, 3 h): 0.390
threshold values (Von-frey test) ([2]; oral 80 mg/kg, 4 h): 0.239
threshold values (Von-frey test) ([2]; oral 80 mg/kg, 5 h): 0.242
threshold values (Von-frey test) ([2]; oral 80 mg/kg, basal): 0.176
analgesic efficacy, Von-frey test (in words) ([2]; oral 10, 20, 40, 80 mg/kg): concentration-dependent until 1 h after treatment and was maintained until 3 h after treatment
inhibition at 12.5 µM (Raw 264.7 cells): 0%
inhibition at 25 µM (Raw 264.7 cells): 9.47%
inhibition at 50 µM (Raw 264.7 cells): 30.8%
inhibition at 100 µM (Raw 264.7 cells): 40.8%
reduction of NO production (in words) (Raw 264.7 cells): concentration-dependent reduction in NO production
effect on MAPK signaling by LPS signals (MAPK): did not appear to significantly affect MAPK signaling

Source: patent US11396511B2, “Substituted 9,13b-dihydro-1H-dibenzo[c,f]imidazo[1,5-a]azepin-3-ylbenzamides as anti-inflammatory and analgesic agents” (FRONTBIO CO., LTD., priority 2017, dated 2022)
